Patent US20120295960A1, “TREATMENT REGIMEN FOR PARKINSON'S DISEASE” (priority 2011, published 2012)

Tested on: MPTP macaques
Experiment: Dyskinesia studies in drug-naive MPTP primates (video dyskinesia analysis, L-Dopa and apomorphine challenge)
Excerpt: Neurotoxin MPTP was first administrated to 23 macaques until they developed severe Parkinsonism, these were then divided into experimental groups according to the following experiments: • 1. […] The animals were then observed from 2 up to 44 months. A subset of these primates were included for histology, microdialysis, electrophysiology, and metabolism studies. • 2. […] For the latter group, five MPTP macaques received daily oral L-Dopa for 12 weeks (MPTP-L-Dopa group, n=5). • 3. In the third experiment the potential of dyskinesia induction in MPTP macaques was studied by challenging them with a short acting D1/D2 dopaminergic agonist, apomorphine, then with an acute oral dose of L-Dopa. […] Animals were then challenged with L-Dopa and the number of dyskinesias was assessed with a specific software (The Observer®, Noldus)
All animals were assessed daily for their general clinical condition with special attention paid to the nutritional status. At the same time, the general neurological state of each macaque was assessed both pre- and post-lentiviral injections. To objectively quantify our neurological observations, animals were video-taped for 30 minutes before MPTP lesioning and at regular intervals following viral injections. The videos were then analyzed off-line by an examiner blinded to the experimental conditions. […]

`CN1CCc2cccc3c2[C@H]1Cc1ccc(O)c(O)c1-3` [apomorphine] was tested, and the “locomotor activity after acute administration” value (MPTP-long term and MPTP-LacZ primates) was “levels similar to that of normal primates” and the “dyskinesia after acute administration” value (MPTP-long term and MPTP-Lenti-LacZ animals) was “debilitating choreiform and dystonic movements”.
